Laboratory results: ChEMBL document CHEMBL1201862, “PubChem BioAssay data set” (2004)
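Briefly, cells in 96-well plates were exposed to five compound concentrations for 48 h, and endpoints were estimated by linear interpolation. At the GI50, growth is halved.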 Calls of active or inactive are those of the source. No stated cut-off is given here; in the data, active = GI50 up to about 1.1 µM and inactive = higher.

Tests used:
Assay in all cases: growth of human tumour cells (NCI), 48 h
A498 = system: A498
A549 = system: A549
ACHN = system: ACHN
CAKI-1 = system: CAKI-1
CCRF-CEM = system: CCRF-CEM
COLO 205 = system: COLO 205
DU-145 = system: DU-145
EKVX = system: EKVX
HCT-15 = system: HCT-15
HL-60 = system: HL-60
HOP-62 = system: HOP-62
HOP-92 = system: HOP-92
HT-29 = system: HT-29
Hs-578T = system: Hs-578T
IGROV-1 = system: IGROV-1
K562 = system: K562
KM12 = system: KM12
LOX IMVI = system: LOX IMVI
M14 = system: M14
MCF7 = system: MCF7
MDA-MB-231 = system: MDA-MB-231
MDA-MB-435 = system: MDA-MB-435
MDA-N = system: MDA-N
MOLT-4 = system: MOLT-4
Malme-3M = system: Malme-3M
NCI-H226 = system: NCI-H226
NCI-H23 = system: NCI-H23
NCI-H460 = system: NCI-H460
NCI-H522 = system: NCI-H522
NCI/ADR-RES = system: NCI/ADR-RES
OVCAR-3 = system: OVCAR-3
OVCAR-5 = system: OVCAR-5
OVCAR-8 = system: OVCAR-8
PC-3 = system: PC-3
RPMI-8226 = system: RPMI-8226
RXF 393 = system: RXF 393
SF-268 = system: SF-268
SF-295 = system: SF-295
SF-539 = system: SF-539
SK-MEL-28 = system: SK-MEL-28
SK-MEL-2 = system: SK-MEL-2
SK-MEL-5 = system: SK-MEL-5
SK-OV-3 = system: SK-OV-3
SNB-19 = system: SNB-19
SNB-75 = system: SNB-75
SR = system: SR
SW-620 = system: SW-620
T47D = system: T47D
TK-10 = system: TK-10
U-251 = system: U-251
UACC-257 = system: UACC-257
UACC-62 = system: UACC-62
UO-31 = system: UO-31
786-0 = system: 786-0
HCC 2998 = system: HCC 2998
HCT-116 = system: HCT-116
OVCAR-4 = system: OVCAR-4
SN12C = system: SN12C

Measured: GI50

C[S+](C)([O-])=Nn1c(=O)n2n(c1=O)[C@H]1CC[C@@H]2C1
inactive: A498 > 100 µM | A549 > 100 µM | ACHN > 100 µM | CAKI-1 > 100 µM | CCRF-CEM > 100 µM | COLO 205 > 100 µM | DU-145 > 100 µM | EKVX > 100 µM | HL-60 46.3 µM | HOP-62 > 100 µM | HOP-92 > 100 µM | HT-29 > 100 µM | Hs-578T > 100 µM | IGROV-1 > 100 µM | K562 > 100 µM | KM12 > 100 µM | LOX IMVI > 100 µM | M14 > 100 µM | MCF7 > 100 µM | MDA-MB-231 > 100 µM | MDA-MB-435 > 100 µM | MDA-N > 100 µM | MOLT-4 > 100 µM | Malme-3M > 100 µM | NCI-H226 > 100 µM | NCI-H23 > 100 µM | NCI-H460 > 100 µM | NCI-H522 > 100 µM | NCI/ADR-RES > 100 µM | OVCAR-3 > 100 µM | OVCAR-5 > 100 µM | OVCAR-8 > 100 µM | PC-3 > 100 µM | RPMI-8226 > 100 µM | RXF 393 > 100 µM | SF-268 > 100 µM | SF-295 > 100 µM | SF-539 > 100 µM | SK-MEL-28 > 100 µM | SK-MEL-2 > 100 µM | SK-MEL-5 > 100 µM | SK-OV-3 > 100 µM | SNB-19 > 100 µM | SNB-75 > 100 µM | SR > 100 µM | SW-620 > 100 µM | T47D > 100 µM | TK-10 > 100 µM | U-251 > 100 µM | UACC-257 > 100 µM | UACC-62 > 100 µM | UO-31 > 100 µM
> 100 µM: HCT-15

Cc1cc2nc3ccccc3n2c2ccccc12
inactive: 786-0 > 10 µM | A549 > 10 µM | ACHN > 10 µM | CAKI-1 > 10 µM | CCRF-CEM 5.96 µM | COLO 205 > 10 µM | DU-145 > 10 µM | EKVX 1.81 µM | HCC 2998 > 10 µM | HCT-116 > 10 µM | HL-60 > 10 µM | HOP-62 > 10 µM | HT-29 > 10 µM | Hs-578T > 10 µM | IGROV-1 > 10 µM | K562 > 10 µM | KM12 > 10 µM | LOX IMVI > 10 µM | M14 > 10 µM | MCF7 > 10 µM | MDA-MB-231 > 10 µM | MDA-MB-435 > 10 µM | MDA-N > 10 µM | MOLT-4 > 10 µM | Malme-3M > 10 µM | NCI-H226 6.17 µM | NCI-H23 > 10 µM | NCI-H460 4.3 µM | NCI-H522 > 10 µM | NCI/ADR-RES > 10 µM | OVCAR-3 > 10 µM | OVCAR-4 > 10 µM | OVCAR-5 > 10 µM | OVCAR-8 > 10 µM | PC-3 > 10 µM | RPMI-8226 > 10 µM | RXF 393 > 10 µM | SF-268 > 10 µM | SF-295 > 10 µM | SF-539 > 10 µM | SK-MEL-28 > 10 µM | SK-MEL-2 > 10 µM | SK-MEL-5 > 10 µM | SK-OV-3 > 10 µM | SN12C > 10 µM | SNB-19 > 10 µM | SNB-75 > 10 µM | SR > 10 µM | SW-620 > 10 µM | T47D > 10 µM | TK-10 > 10 µM | U-251 > 10 µM | UACC-257 > 10 µM | UACC-62 > 10 µM
> 10 µM: HCT-15

CC(C)c1ccccc1SCc1cc(=O)cc(CSc2ccccc2C(C)C)o1
24.7 µM: HCT-15
inactive: A498 20.3 µM | A549 19.7 µM | ACHN 32.6 µM | CAKI-1 18.5 µM | CCRF-CEM 26.9 µM | COLO 205 37.2 µM | DU-145 23.1 µM | EKVX 19.3 µM | HCC 2998 30.3 µM | HL-60 22.9 µM | HOP-62 20.7 µM | HOP-92 15.2 µM | HT-29 19.8 µM | Hs-578T 13.5 µM | IGROV-1 14.5 µM | K562 48.1 µM | KM12 15.7 µM | LOX IMVI 26.8 µM | M14 20.2 µM | MCF7 18.2 µM | MDA-MB-231 17.9 µM | MDA-MB-435 15 µM | MDA-N 18.8 µM | MOLT-4 22.6 µM | Malme-3M 25.2 µM | NCI-H226 21.2 µM | NCI-H23 37.6 µM | NCI-H460 21.1 µM | NCI/ADR-RES 17.7 µM | OVCAR-3 17.9 µM | OVCAR-4 19.5 µM | OVCAR-5 15.3 µM | OVCAR-8 22.7 µM | PC-3 13.7 µM | RPMI-8226 32.4 µM | RXF 393 31 µM | SF-268 16.8 µM | SF-295 17.7 µM | SK-MEL-28 32.7 µM | SK-MEL-2 17.4 µM | SK-MEL-5 24.1 µM | SK-OV-3 22.1 µM | SNB-19 32.7 µM | SNB-75 19.4 µM | SR 31.7 µM | SW-620 34.2 µM | T47D 24 µM | TK-10 17.9 µM | U-251 22 µM | UACC-257 20.5 µM | UACC-62 16.7 µM | UO-31 27.4 µM
